Source: paper PMC8067632, “Assessment and Development of the Antifungal Agent Caspofungin for Aerosolized Pulmonary Delivery” (Pharmaceutics, 2021)

Assays:
[1] = tested on: Candida albicans Azole-R (20186.025); test: microbe, parasite or virus in culture; assay type: cell-based; conditions: CLSI broth microdilution, azole-resistant strain, duplicate
Procedure: (§1) Antifungal potency of the test article(s) was measured using the in vitro broth microdilution assay under test conditions described by the Clinical and Laboratory Standards Institute. Minimum Inhibitory Concentration (MIC) is defined as the lowest concentration of an agent that causes a specified reduction in visible growth of the microorganism. Minimum Effective Concentration (MEC) is defined as the lowest concentration of an agent that leads to the growth of small, rounded, compact hyphal forms, as compared to the hyphal growth typically seen in the growth control well. MIC values were determined for 9 Candida spp., and MEC values were determined for filamentous fungus species (Aspergillus fumigatus and Trichophyton rubrum). Details of the test article preparations and methodologies are described in Supplementary Material S1.
(§2) Following incubation, the test plates were visually examined and wells were scored for growth or complete growth inhibition to define the MIC values. Microscopy examination was used to determine the MEC values. Each test substance was evaluated in duplicate and the results are the duplicate test values. Vehicle-control and an active reference agent were used as blank and positive controls, respectively. […]
(§3) S1. In Vitro Testing, Test Article Preparations
(§4) The 5 mg/mL stock solution was prepared as the following. The refrigerated vial was equilibrated to room temperature. Test vial was reconstituted aseptically with 10.5 mL 0.9% NaCl. The powder was dissolved completely, mixing until a clear solution was ob-tained. The final concentration was 5.0 mg/mL of caspofungin freebase. The reconstituted solution was stable for 1 hr at room temperature. The 5 mg/mL stock solution was then […]
(§5) The refrigerated vial was equilibrated to room temperature. The powder was dis-solved completely, mixing until a clear solution was obtained. Test vial was reconstituted aseptically with 1.8 mL 0.9% NaCl. The white to off-white powder was dissolved com-pletely, mixing gently until a clear solution was obtained. The final concentration was 5.0 mg/mL of caspofungin freebase. The reconstituted solution was used within 1 hr at room temperature. The 5 mg/mL stock solution was then diluted with 0.9% NaCl to prepare the […]
(§6) 1.3. Caspofungin Diacetate
(§7) The 5 mg/mL API stock solution was prepared as the following. The refrigerated vial was equilibrated to room temperature. Test vial was filled aseptically with 1.8 mL 0.9%
(§8) NaCl. The powder was dissolved completely, mixing until a clear solution was obtained.
(§9) The final concentration was 5.0 mg/mL of caspofungin freebase. The reconstituted solu-tion was used within 1 hr at room temperature. The 5 mg/mL stock solution was then […]
(§10) g compound, corresponding to 1.2 mg active compound with a correction factor of 2.40 was added 0.375 mL of water for injection to generate the 3.2 mg/mL working stock solution for testing. The 3.2 mg/mL working stock solution was 2-fold diluted seri-ally in 0.9% NaCl to prepare a total of eleven 50-fold stock solutions, concentrations rang-ing from 3.2 to 0.003 mg/mL. A 4 μL aliquot of each dilution was added to 196 μL of broth medium seeded with the organism suspension in wells of a 96 well plate (fungal cell count: 1 x 10^3 to 1 x 10^4 colony forming units per mL). The final volume was 200 μL in each […]

[2] = tested on: Candida parapsilosis ATCC 22019; test: microbe, parasite or virus in culture; assay type: cell-based; conditions: CLSI broth microdilution, duplicate
Procedure: as §1, §2, §3, §4, §5, §6, §7, §8, §9, §10

[3] = tested on: Candida albicans ATCC90028 + 50%human serum; test: microbe, parasite or virus in culture; assay type: cell-based; conditions: CLSI broth microdilution, duplicate
Procedure: as §1, §2, §3, §4, §5, §6, §7, §8, §9, §10

[4] = tested on: Candida albicans ATCC44858; test: microbe, parasite or virus in culture; assay type: cell-based; conditions: CLSI broth microdilution, visual, duplicate
Procedure: as §1, §2, §3, §4, §5, §6, §7, §8, §9, §10

[5] = tested on: Candida albicans ATCC90028; test: microbe, parasite or virus in culture; assay type: cell-based; conditions: CLSI broth microdilution, visual, duplicate
Procedure: as §1, §2, §3, §4, §5, §6, §7, §8, §9, §10

[6] = tested on: Candida tropicalis ATCC 200956; test: microbe, parasite or virus in culture; assay type: cell-based; conditions: CLSI broth microdilution, duplicate
Procedure: as §1, §2, §3, §4, §5, §6, §7, §8, §9, §10

[7] = tested on: Candida krusei ATCC 6258; test: microbe, parasite or virus in culture; assay type: cell-based; conditions: CLSI broth microdilution, duplicate
Procedure: as §1, §2, §3, §4, §5, §6, §7, §8, §9, §10

[8] = tested on: Candida albicans Azole-R (20183.073); test: microbe, parasite or virus in culture; assay type: cell-based; conditions: CLSI broth microdilution, azole-resistant strain, duplicate
Procedure: as §1, §2, §3, §4, §5, §6, §7, §8, §9, §10

[9] = tested on: Candida glabrata ATCC 36583; test: microbe, parasite or virus in culture; assay type: cell-based; conditions: CLSI broth microdilution, duplicate
Procedure: as §1, §2, §3, §4, §5, §6, §7, §8, §9, §10

[10] = Aerosol characterization (PARI LC Star nebulizer, QCM cascade impactor); assay type: physicochemical; conditions: 10 mg/mL caspofungin diacetate, determined once
Procedure: Aerosol particle size distribution was determined once with a quartz crystal microbalance (QCM) cascade impactor (California Measurements Inc., Sierra Madre, CA, USA) equipped with 10 stages to collect size-segregated samples. The mass median aerodynamic diameter (MMAD) and geometric standard deviation (GSD) were calculated from the mass accumulated on each collection stage of the QCM. Each formulation was tested by aerosolizing it with a PARI LC Star nebulizer (PARI Respiratory Equipment, Inc., Midlothian, VA, USA) connected to compressed air at 28 psi. The air flow to the nebulizer was about 6.2 L/min. Approximately 7 mL of the test formulation solution was placed in the nebulizer, weighed and connected to the air supply for aerosolization. The nebulizer was operated for 12 min, and post weighed. The generated aerosol was delivered into a plenum with a narrow opening. A stream of test aerosol was sampled from the plenum for particle size determination. A Quartz Crystal Microbalance based cascade impactor (TSI Inc., Shoreview, MN, USA) was used for these determinations. Details of the formulation preparations are described in Supplementary Material S3.
S3. Aerosol Characterization
(PVP K30, 100 mg/mL) were prepared. […]
osols for the purpose of comparing particle size.
S3.1. Preparation of Caspofungin Diacetate Stock Solution: […]
and recorded once during the exposure. […]

Question: With CC[C@H](C)C[C@H](C)CCCCCCCCC(=O)N[C@H]1C[C@@H](O)[C@@H](NCCN)NC(=O)[C@@H]2[C@@H](O)CCN2C(=O)[C@H]([C@H](O)CCN)NC(=O)[C@H]([C@H](O)[C@@H](O)c2ccc(O)cc2)NC(=O)[C@@H]2C[C@@H](O)CN2C(=O)[C@H]([C@@H](C)O)NC1=O [Caspofungin Diacetate] as the compound, how does the MIC [1] read?
Answer: 0.25 µg/mL

Question: And the MIC [2]?
Answer: 1 µg/mL

Question: And the MIC [3]?
Answer: 0.125 µg/mL

Question: And the MIC [4]?
Answer: 0.25 µg/mL

Question: And the MIC [5]?
Answer: 0.25 µg/mL

Question: What about the MIC [6] of the same compound?
Answer: 0.25 µg/mL

Question: What about the MIC [7] of the same compound?
Answer: 1 µg/mL

Question: What about the MIC [8] of the same compound?
Answer: 0.25 µg/mL

Question: And the MIC [9]?
Answer: 0.25 µg/mL

Question: And the “MMAD (Mass Median Aerodynamic Diameter)” value [10]?
Answer: 1.15 microns
